Results on 1 molecule are retold here after patent US4634700A, “1,3-dioxolanyl derivatives, a process for their preparation, their use and pharmaceutical preparations containing these compounds” (Ludwig Heumann & Co., GmbH, priority 1984, dated 1987).

What all share (experiment): Growth inhibition of yeast, IC 50% determination
Common to all, as to format: cell-based

For one assay, the system named is Cand. albicans. The settings on record: Candida albicans; Cand. albicans (pathogen +). From the text:
(§1) One method of determining the microbiological activity of the compounds according to the invention on yeasts is the determination of the inhibitory concentration 50% (IC 50%).

Another assay deals with Cand. curvata. The note with it: Cand. curvata (pathogen +).
Source text: as §1

The test system of another assay is Cand. krusei. The settings on record: Pichia kudriavzevii; Cand. krusei (pathogen +).
Source text: as §1

Another assay has as its system Cand. parapsilosis. The note with it: Lodderomyces parapsilosis; Cand. parapsilosis (pathogen +).
Source text: as §1

A further assay relates to Cand. pseudotropicalis. The note with it: Kluyveromyces marxianus; Cand. pseudotropicalis (pathogen +).
Source text: as §1

The test system of assay [1] is Cryptococcus neoformans 1. The note with it: Cryptococcus neoformans 1 (pathogen +).
Source text: as §1

The test system of assay [2] is Cryptococcus neoformans 2. The note with it: Cryptococcus neoformans 2 (pathogen +).
Source text: as §1

The next assay deals with Geotrichum capitum. The note with it: Geotrichum capitum (pathogen +).
Source text: as §1

A further assay relates to Hansenula anomala. The note with it: Hansenula anomala (pathogen -).
Source text: as §1

The test system of another assay is Metschnikowia pulch. The note with it: Metschnikowia pulch (pathogen -).
Source text: as §1

A further assay concerns Rhodotorula spec. The settings on record: Rhodotorula spec. (pathogen -).
Source text: as §1

A further assay has as its system Sacch. cerevisiae 1. The settings on record: Saccharomyces cerevisiae; Sacch. cerevisiae 1 (pathogen (+)).
Source text: as §1

The next assay deals with Sacch. cerevisiae 2. The settings on record: Saccharomyces cerevisiae; Sacch. cerevisiae 2 (pathogen (+)).
Source text: as §1

A further assay deals with Sacch. fragilis. The settings on record: Sacch. fragilis (pathogen (+)).
Source text: as §1

Another assay relates to Sacch. rouxii. The note with it: Sacch. rouxii (pathogen (+)).
Source text: as §1

A further assay deals with Sacch. uvarum. The settings on record: Sacch. uvarum (pathogen (+)).
Source text: as §1

≈ marks a conversion by molar mass, not a printed value.

With `CSC(=NC#N)N1CCN(c2ccc(OC[C@H]3CO[C@](Cn4ccnc4)(c4ccc(Cl)cc4Cl)O3)cc2)CC1` (relative stereo) [Example 2, cis-1-Cyanimino-methylthio-methylene-4-[4[[2-(2,4-dichlorophenyl)-2-(1H-imidazol-1-ylmethyl)-1,3-dioxolan-4-yl]-methoxy]-phenyl]-piperazine], the IC50 in the assay on Cand. albicans is 0.00125 µg/mL (≈ 0.00213 µM); in the assay on Cand. curvata it was 0.125 µg/mL (≈ 0.213 µM); with Cand. krusei, 0.125 µg/mL (≈ 0.213 µM); in the assay on Cand. parapsilosis, 0.0125 µg/mL (≈ 0.0213 µM); with Cand. pseudotropicalis it was 0.00125 µg/mL (≈ 0.00213 µM); in assay [1], 0.0125 µg/mL (≈ 0.0213 µM). The IC50 in assay [2] is 0.125 µg/mL (≈ 0.213 µM); with Geotrichum capitum, 0.125 µg/mL (≈ 0.213 µM); with Hansenula anomala, 0.00125 µg/mL (≈ 0.00213 µM); with Metschnikowia pulch it was 0.00125 µg/mL (≈ 0.00213 µM); with Rhodotorula spec., 1.25 µg/mL (≈ 2.13 µM); in the assay on Sacch. cerevisiae 1, 1.25 µg/mL (≈ 2.13 µM). Moreover, the IC50 in the assay with Sacch. cerevisiae 2 came to 1.25 µg/mL (≈ 2.13 µM); in the assay with Sacch. fragilis, 0.0125 µg/mL (≈ 0.0213 µM); with Sacch. rouxii, 0.00125 µg/mL (≈ 0.00213 µM); in the assay on Sacch. uvarum, 1.25 µg/mL (≈ 2.13 µM).
